Results from the supplement of paper PMC13380429.

Experiments:
Details in all cases: 72 h
[1] = tested on: HepG2; assay: cell viability relative to DMSO; higher = less toxic
[2] = tested on: Caco-2; assay: as above
[3] = tested on: U2OS; assay: as above
[4] = tested on: Calu-3; assay: as above
[5] = tested on: Vero E6; assay: as above
[6] = tested on: Caco-2; assay: relative viability EC50 (midpoint between 100% and the lowest measured viability); higher = less toxic
[7] = tested on: U2OS; assay: as above
[8] = tested on: Calu-3; assay: as above
[9] = tested on: Vero E6; assay: as above
[10] = tested on: HepG2; assay: drug sensitivity score (DSS) for viability; higher = more toxic; extreme values may be limits of the assay
[11] = tested on: Caco-2; assay: as above
[12] = tested on: U2OS; assay: as above
[13] = tested on: Calu-3; assay: as above
[14] = tested on: Vero E6; assay: as above
[15] = tested on: HepG2; assay: relative viability EC50 (midpoint between 100% and the lowest measured viability); higher = less toxic

| SMILES | cell viability ([1]; 1 nM) [%] | cell viability ([1]; 10 nM) [%] | cell viability ([1]; 100 nM) [%] | cell viability ([1]; 1000 nM) [%] | cell viability ([1]; 10000 nM) [%] | cell viability ([2]; 1 nM) [%] | cell viability ([2]; 10 nM) [%] | cell viability ([2]; 100 nM) [%] | cell viability ([2]; 1000 nM) [%] | cell viability ([2]; 10000 nM) [%] | cell viability ([3]; 1 nM) [%] | cell viability ([3]; 10 nM) [%] | cell viability ([3]; 100 nM) [%] | cell viability ([3]; 1000 nM) [%] | cell viability ([3]; 10000 nM) [%] | cell viability ([4]; 1 nM) [%] | cell viability ([4]; 10 nM) [%] | cell viability ([4]; 100 nM) [%] | cell viability ([4]; 1000 nM) [%] | cell viability ([4]; 10000 nM) [%] | cell viability ([5]; 1 nM) [%] | cell viability ([5]; 10 nM) [%] | cell viability ([5]; 100 nM) [%] | cell viability ([5]; 1000 nM) [%] | cell viability ([5]; 10000 nM) [%] | relative viability EC50 [6] [µM] | relative viability EC50 [7] [µM] | relative viability EC50 [8] [µM] | relative viability EC50 [9] [µM] | drug sensitivity score [10] | drug sensitivity score [11] | drug sensitivity score [12] | drug sensitivity score [13] | drug sensitivity score [14] | relative viability EC50 [15] [µM] |
| --- | --- | --- | --- | --- | --- | --- | --- | --- | --- | --- | --- | --- | --- | --- | --- | --- | --- | --- | --- | --- | --- | --- | --- | --- | --- | --- | --- | --- | --- | --- | --- | --- | --- | --- | --- |
| Nc1nc2c(c(N3CCNCC3)n1)CCC1=C2[C@@H]2CCCC[C@@H]2O1 | 94.8 | 105 | 109 | 102 | 54.2 | 99.3 | 95.5 | 93 | 91.5 | 103 | 102 | 100 | 99.5 | 98.8 | 101 | 104 | 105 | 101 | 106 | 96.4 | 96.3 | 93 | 93.6 | 88.5 | 90 | > 10 | > 10 | > 10 | > 10 | 2.2 | 0 | 0 | 0 | 0.1 | – |
| O=C(CC12CC3CC(CC(C3)C1)C2)Nc1cccc2nc(NCCNCCO)ccc12 | 97.5 | 94.7 | 93.7 | 96.8 | 99.9 | 91.2 | 93.1 | 93.8 | 91.8 | 91.8 | 96.1 | 102 | 95.2 | 97.9 | 95.1 | 99 | 101 | 92.1 | 98.4 | 94.9 | 96 | 102 | 95.8 | 91.4 | 100 | > 10 | > 10 | > 10 | > 10 | 0 | 0 | 0 | 0 | 0 | > 10 |
| O=C1NC(=O)C(c2ccccc2[N+](=O)[O-])=C1Nc1ccc(O)c(Cl)c1 | 102 | 97.1 | 95.5 | 104 | 100 | 98.1 | 94.3 | 104 | 95.7 | 107 | 93.5 | 94.9 | 101 | 103 | 104 | 91.4 | 91.9 | 94.4 | 85.9 | 88.9 | 101 | 103 | 98.8 | 105 | 105 | > 10 | > 10 | > 10 | > 10 | 0 | 0 | 0 | 0 | 0 | > 10 |
| O=S(=O)(/N=C/c1c(O)ccc2ccccc12)c1cccs1 | 100 | 120 | 96.8 | 109 | 99.9 | 102 | 95.8 | 97.4 | 95.9 | 103 | 103 | 100 | 98.9 | 99.5 | 103 | 91.3 | 99.3 | 99.8 | 104 | 100 | 99.9 | 102 | 100 | 106 | 94.5 | > 10 | > 10 | > 10 | > 10 | 0 | 0 | 0 | 0 | 0 | > 10 |
| O=S(=O)(c1ccccc1)c1cnc2c(N3CCNCC3)cccc2c1 | 93.8 | 105 | 97.1 | 108 | 87.2 | 95.9 | 101 | 102 | 94.8 | 101 | 102 | 96.8 | 102 | 99 | 97 | 90.2 | 96.5 | 104 | 96.7 | 98.4 | 93.3 | 97.4 | 95 | 97.3 | 106 | > 10 | > 10 | > 10 | > 10 | 0 | 0 | 0 | 0 | 0 | > 10 |
| OC(CN1CCN(c2cccc(Cl)c2)CC1)C(c1ccccc1)c1ccccc1 (stereo unspecified) | 103 | 102 | 92.4 | 108 | 102 | 93.3 | 101 | 101 | 94.4 | 105 | 95.2 | 97.9 | 98.2 | 95.8 | 92.8 | 102 | 110 | 98.6 | 99.9 | 104 | 95.5 | 96.9 | 88.9 | 99.7 | 104 | > 10 | > 10 | > 10 | > 10 | 0 | 0 | 0 | 0 | 0 | > 10 |
| c1ccc2c(c1)CCCc1cc(NCCN3CCOCC3)nnc1-2 | 101 | 101 | 94.4 | 87.7 | 101 | 97.7 | 99.2 | 96.1 | 105 | 87.7 | 97.1 | 99.7 | 92.9 | 98.1 | 96.6 | 99.7 | 105 | 96.1 | 113 | 94.9 | 104 | 98.9 | 108 | 104 | 99 | > 10 | > 10 | > 10 | > 10 | 0 | 0 | 0 | 0 | 0 | > 10 |
| CC(C)(C)c1cc(C(C)(C)C)c2c(c1)C(O)(C(F)(F)F)C(=O)O2 (racemic) [rac-BHFF] | 92.4 | 105 | 98.2 | 104 | 91.8 | 94.3 | 91.8 | 87.4 | 93 | 94.6 | 100 | 96.8 | 103 | 99.1 | 108 | 95.9 | 93.4 | 94.8 | 93.2 | 106 | 99 | 103 | 99.3 | 103 | 99 | > 10 | > 10 | > 10 | > 10 | 0 | 0 | 0 | 0 | 0 | > 10 |
| CC(=O)SC[C@@H](Cc1ccccc1)C(=O)NCC(=O)OCc1ccccc1 (racemic) [racecadotril] | 105 | 101 | 88.8 | 89.7 | 102 | 94.4 | 95.7 | 99.7 | 92.6 | 122 | 101 | 96.8 | 97.4 | 98.9 | 102 | 92.8 | 96.7 | 95.5 | 105 | 108 | 105 | 99.3 | 94.1 | 101 | 109 | > 10 | > 10 | > 10 | > 10 | 0.6 | 0 | 0 | 0 | 0 | > 10 |
| CN1[C@@H]2CC[C@H]1C[C@@H](OC(c1ccc(F)cc1)c1ccc(F)cc1)C2 [3-alpha-bis-(4-fluorophenyl)-methoxytropane] | 102 | 96.3 | 92 | 93.6 | 74.1 | 95.5 | 90.9 | 92.6 | 102 | 102 | 102 | 96.1 | 101 | 96.8 | 93.1 | 109 | 106 | 99.5 | 126 | 86.5 | 102 | 103 | 100 | 97.9 | 86.1 | > 10 | > 10 | > 10 | > 10 | 1.6 | 0 | 0 | 0 | 0.3 | – |
| CCc1nn(CCCN2CCN(c3cccc(Cl)c3)CC2)c(=O)n1CCOc1ccccc1 [nefazodone] | 93.2 | 91.5 | 95.7 | 97.6 | 70.8 | 96.4 | 95.3 | 100 | 99.8 | 86.3 | 106 | 100 | 101 | 99 | 97.4 | 103 | 94.6 | 96.7 | 96.3 | 96.8 | 95.6 | 101 | 97.5 | 102 | 96.6 | > 10 | > 10 | > 10 | > 10 | 1.6 | 0.1 | 0 | 0 | 0 | – |
| COCCOC(=O)C1=C(C)NC(C)=C(C(=O)OC(C)C)C1c1cccc([N+](=O)[O-])c1 (stereo unspecified) [nimodipine] | – | – | – | – | – | 98.4 | 93.4 | 87.8 | 98.1 | 91.5 | 97.2 | 97.8 | 104 | 97.8 | 95.9 | 101 | 98.2 | 104 | 96.7 | 97.8 | 98.6 | 100 | 103 | 102 | 88.1 | > 10 | > 10 | > 10 | > 10 | – | 0 | 0 | 0 | 0 | – |
| N#Cc1ccc(-c2csc(NN=C3CCCC3)n2)cc1 [remodelin] | 105 | 97.2 | 109 | 92.3 | 73.1 | 95.5 | 99.7 | 94.8 | 103 | 76.6 | 98.3 | 102 | 99.3 | 105 | 95.5 | 102 | 102 | 96.3 | 116 | 93 | 98.3 | 103 | 102 | 99.2 | 105 | > 10 | > 10 | > 10 | > 10 | 2.2 | 0.7 | 0 | 0 | 0 | – |
| O=C(O)c1cc(/N=N/c2ccc(S(=O)(=O)Nc3ccccn3)cc2)ccc1O [sulfasalazine] | – | – | – | – | – | 108 | 99.5 | 89.9 | 96.6 | 112 | 98.6 | 99.1 | 97.4 | 102 | 98.1 | 101 | 102 | 102 | 104 | 91.5 | 104 | 103 | 107 | 98.7 | 97.6 | > 10 | > 10 | > 10 | > 10 | – | 0 | 0 | 0 | 0 | – |
| CCCS(=O)(=O)Nc1ccc(F)c(C(=O)c2c[nH]c3ncc(-c4ccc(Cl)cc4)cc23)c1F [vemurafenib] | 113 | 103 | 98.3 | 107 | 54.5 | 109 | 97.3 | 117 | 107 | 77 | 96.6 | 100 | 95.2 | 104 | 86.8 | 102 | 105 | 106 | 95.8 | 90.1 | 106 | 104 | 100 | 111 | 91.7 | > 10 | > 10 | > 10 | > 10 | 1.9 | 0.5 | 0.1 | 0 | 0 | – |
